Where “and” joins values, the source holds several entries; their conditions need not be identical. Equal values may be shown once. Read-outs that look alike come from different tables or passages of the source.
Assays:
MitM [1] = molecular target: T1, MitM (Streptomyces lavendulae, UniProt Q9X5Q9); type: biochemical, S. lavendulae; settings: Example 4; with SAM
MitM [2] = molecular target: T1, MitM; experiment: Enzyme assay and kinetic measurement, aziridine N-methyltransferase (Example 5); type: biochemical, S. lavendulae; settings: for conversion of candidate substrate by MitM: in the presence of SAM, TLC/HPLC
Method: (§1) pDHS7801 and pDHS7802 were transforned into E. coli BL21 (DE3) strain for the overexpression of MitM and MitN, respectively. E. coli cells were grown at 37° C. in NZCM broth containing 50 μg/ml kanamycin until OD600=0.6. Expression of MitM (or MitN) was induced by adding IPTG to a final concentration of 0.1 mM and reducing the temperature to 25° C. After incubating the culture overnight, cells were harvested, suspended in ice-cooled lysis buffer (50 mM NaH2PO4, pH 8.0; 300 mM NaCl; 10 mM imidazole), and lysed by sonication (6×10 seconds with 10 second pauses at 200-300 W). The supernatant collected by centrifuging the lysate at 10,000 g at 4° C. was used to pass through a Qiagen Ni-NTA column as specified by the manufacturer. The column was […] twice with wash buffer (50 mM NaH2PO4, pH 8.0; 300 mM NaCl; 20 mM imidazole) followed by dissolving the protein in elution buffer (50 mM NaH2PO4, pH 8.0; 300 mM NaCl; 250 mM imidazole). The protein eluted from the column was then precipitated with 60% ammonia sulfate, desalted by passing through a Pharmacia PD-10 column, and dissolved in 50 mM pH7.4 potassium buffer with 1 mM PMSF. The protein concentration was determined using the Bradford Assay with BSA as the standard.
(§2) The reactions were incubated at 30° C. for 30 minutes and were terminated by twice equal volume of ethyl acetate extraction.
(§3) The calculations were carried out using Kcat computer program by fitting the data to a Michaelis-Menton equation by linear regression.

MitN = MitN (Streptomyces lavendulae, UniProt Q9X5Q8); experiment: as above; type: biochemical, S. lavendulae; settings: for conversion of candidate substrate by MitN: in the presence of SAM, TLC/HPLC
Method: as §1, §2, §3

[3] = system: E. coli strain PJS100 (mrd expressing); experiment: MC resistance phenotype of E. coli, plate count; type: cell-based
Excerpt: MC resistance phenotppe of E. coli.

[4] = system: E. coli strain PJS102 (mct expressing); experiment: MC resistance phenotype of E. coli, plate count; type: cell-based
Method: Construction of mct expression plasmid. For the construction of the E. coli expression plasmid NdeI and HindIII sites were introduced at the translational start codon and downstream of the translational stop codon of mct, respectively. […] The PCR was carried out using 2.5 U of Taq polymerase, 0.4 μg of each primer, 1 μg of pDHS7661 DNA as template, […] each of dATP-dGTP-dCTP-dTTP, 1.5 mM MgCl2, and 10 μl of 10×Promega PCR buffer in a total volume of 100 μl .
(§4) The cultures were grown overnight at 37° C. and colony-forming units (CFUs) were determined.

S. lavendulae wild-type = experiment: Resistance of S. lavendulae strains to MC, plate count; type: cell-based, Streptomyces lavendulae
Excerpt: To establish a physiological role for MCT in S. lavendulae, the corresponding gene (mct) was inactivated by insertion of the aphII gene from transposon Tn5 to give pDHS7704.

[5] = system: E. coli BL21 (DE3)::pET17b (vector control)
Method: as §4

E. coli strain PJS103 = experiment: [^3H]-MC uptake assay; type: cell-based
Method: (§5) [^3H]-MC uptake assay of strains PJS102 and PJS103. [^3H]-MC was obtained from Kyowa Hakko Kogyo, Ltd. Uptake studies were performed for whole cells of PJS100, PJS102, PJS103 and E. coli BL21 (DE3)::pT7SC and pET17b. PJS100, PJS102, and PJS103 as well as vectoronly cultures were cultured (37° C.) in 5 ml of NCZYM medium with IPTG added to a final concentration of 1 mM (at approximately 3 hours growth). At 9 hours (late exponential phase), cells were harvested by centrifugation and resuspended in 1 ml NCZYM broth (5×concentration). The concentrated suspension of late-exponential growth phase cells was exposed to [^3H]-MC (59 Ci/mmol) at a final concentration of 0.022 μg/ml (0.0655 nmol). Aliquots (100 μl) were removed at frequent intervals, placed on […] GF/C filters (Whatman International, Maidstone, U.K.) and washed once with 6 ml of 0.85% NaCl poured over the filters under vacuum pressure. Additional aliquots were simultaneously removed for determination of protein content (protein assay kit, Bio-Rad Laboratories, Richmond, Calif.). Radioactivity on the filters was quantified using a Beclkan LS7000 scintillation counter. Results were expressed as nanograins of mitomycin per milligram of cell protein.
(§6) MC uptake by E. coli cells expressing mct, mrd or mct/mrd. Since the deduced amino acid sequence of the mct gene was similar to antibiotic export proteins, reduced accumulation of MC in MCT-expressing cells would be expected. An assay, modeled after experiments used to study tetracycline efflux-mediated resistance in E. coli (Levy and McMurry, 1978), was designed to study the uptake of [^3H]-MC by the susceptible vector control and resistant mct, mrd and mct/mrd expressing E. coli strains.

E. coli strain PJS102 = experiment: [^3H]-MC uptake assay; type: cell-based; settings: at 5 minutes; [^3H]-MC 0.022 μg/ml
Method: as §5, §6

E. coli strain PJS100 = experiment: [^3H]-MC uptake assay; type: cell-based; settings: at 30 minutes
Method: as §5, §6

[6] = system: E. coli BL21(DE3)::pET17b vector control strain; experiment: [^3H]-MC uptake assay; type: cell-based; settings: [^3H]-MC 0.022 μg/ml
Method: as §5, §6

[7] = system: E. coli strain PJS103 (mct-mrd co-expressing)
Method: Construction of mct-mrd co-expression plasmid. […] The fragment contained the mrd gene under the control of the T7 promoter, including transcriptional terminator sequences (rrnB T1) upstream and downstream of mrd.
as §4

[8] = molecular target: 31-O-demethylFK506 O-methyltransferase (FKMT) (Streptomyces tacrolimicus, UniProt P74838); settings: read-out: Km for SAM; cited from earlier work
[9] = molecular target: demethylmacrocin O-methyltransferase (DMOMT) (Streptomyces fradiae, UniProt Q9ZHQ4); settings: read-out: Km for SAM; cited from earlier work
[10] = molecular target: macrocin O-methyltransferase (MOMT) (Streptomyces fradiae, UniProt Q9S4D5); settings: read-out: Km for SAM; cited from earlier work
[11] = system: 31-O-desmethylimmunomycin O-methyltransferase (DIMT); settings: read-out: Km for SAM; cited from earlier work
[12] = molecular target: carminomycin O-methyltransferase (CMT) (Streptomyces sp., UniProt Q55216); settings: read-out: Km for SAM; cited from earlier work
[13] = system: C[S+](CC[C@H](N)C(=O)O)C[C@H]1O[C@@H](n2cnc3c(N)ncnc32)[C@H](O)[C@@H]1O; experiment: purified protein, by the assay type

Compound: COC1=C(C)C(=O)C2=C(C1=O)[C@@H](COC(N)=O)[C@H]1[C@H]3N[C@H]3CN21 [9a-demethoxy mitomycin A]
- enzymatic conversion (methylation) by MitM (MitM [1]): methylate specifically the aziridine nitrogen

Compound: COC1=C(C)C(=O)C2=C(C1=O)[C@@H](COC(N)=O)[C@@]1(OC)[C@H]3N[C@H]3CN21 [MA, mitomycin A]
- Vmax for MA (MitM [2]; MitM, pH 7.4, SAM fixed 200 μM): 57.4 ± 4.2 nmol/mg/min
- conversion of candidate substrate by MitM (MitM [2]): new product was formed
- Km (MitM [2]; read-out: Km for MA, MitM, pH 7.4, SAM fixed 200 μM, MA 30-300 μM): 169 µM
- Vmax for MA (MitN; MitN, pH 7.4, SAM fixed 200 μM): 75.9 ± 2.4 nmol/mg/min
- conversion of candidate substrate by MitN (MitN): new product was formed
- Km (MitN; read-out: Km for MA, MitN, pH 7.4, SAM fixed 200 μM, MA 30-300 μM): 94.7 µM and 95 µM
- enzymatic conversion (methylation) by MitM (MitM [1]): methylated at the aziridine nitrogen

Compound: CO[C@@]12[C@H](COC(N)=O)C3=C(C(=O)C(C)=C(N)C3=O)N1C[C@@H]1N[C@@H]12 [MC, mitomycin C]
- Plate count CFU/ml ([3]; MC 1.0 μg/ml): 3.3 × 10^6 CFU/ml
- Plate count CFU/ml ([3]; MC 5.0 μg/ml): 2.7 × 10^6 CFU/ml
- Plate count CFU/ml ([3]; MC 10 μg/ml): 6.1 × 10^5 CFU/ml
- Plate count CFU/ml ([3]; MC 20 μg/ml): 2.5 × 10^5 CFU/ml
- Plate count CFU/ml ([3]; MC 30 μg/ml): 5.0 × 10^2 CFU/ml
- Plate count CFU/ml ([3]; MC 60 μg/ml): 0.0 CFU/ml
- Plate count CFU/ml ([4]; MC 0.5 μg/ml): 2.1 × 10^5 CFU/ml
- Plate count CFU/ml ([4]; MC 1.0 μg/ml): 5.9 × 10^4 CFU/ml
- Plate count CFU/ml ([4]; MC 2.5 μg/ml): 2.0 × 10^2 CFU/ml
- Plate count CFU/ml ([4]; MC 5.0 μg/ml): 0.0 CFU/ml
- MC resistance level of the wild-type S. lavendulae (S. lavendulae wild-type): > 150 μg(ml
- Plate count CFU/ml (S. lavendulae wild-type; MC 40 μg/ml): 5.3 × 10^3 CFU/ml
- Plate count CFU/ml (S. lavendulae wild-type; MC 100 μg/ml): 2.0 × 10^3 CFU/ml
- Plate count CFU/ml ([5]; MC 0.01 μg/ml): >10^7 CFU/ml
- Plate count CFU/ml ([5]; MC 0.1 μg/ml): 7.3 × 10^3 CFU/ml
- Plate count CFU/ml ([5]; MC 0.5 μg/ml): 3.2 × 10^2 CFU/ml
- Plate count CFU/ml ([5]; MC 1.0 μg/ml): 0.0 CFU/ml
- conversion of candidate substrate by MitM (MitM [2]): no conversions were detected
- conversion of candidate substrate by MitN (MitN): no conversions were detected
- enzymatic conversion (methylation) by MitM (MitM [1]): no conversion products were observed
- MC accumulation as % of E. coli cells bearing vector alone (E. coli strain PJS103; at 5 minutes, [^3H]-MC 0.022 μg/ml): 35%
- MC accumulation, % greater than strain PJS102 (E. coli strain PJS103; over the course of the experiment): about 23%
- MC accumulation as % of the susceptible control (E. coli strain PJS102): 25%
- MC accumulation, % higher than the drug-sensitive vector control (E. coli strain PJS100): 42%
- time at which MC accumulation reaches maximum level [6]: 5 min
- Plate count CFU/ml ([7]; MC 80 μg/ml): 1.4 × 10^5 CFU/ml
- Plate count CFU/ml ([7]; MC 100 μg/ml): 9.6 × 10^3 CFU/ml
- Plate count CFU/ml ([7]; MC 150 μg/ml): 3.0 × 10^1 CFU/ml

Compound: CC1=C(N)C(=O)C2=C(C1=O)N1C[C@H]3[C@H](N3C)[C@]1(O)[C@H]2COC(N)=O (stereo partly shown) [MD, mitomycin D]
- conversion of candidate substrate by MitM (MitM [2]): no conversions were detected
- conversion of candidate substrate by MitN (MitN): no conversions were detected
- enzymatic conversion (methylation) by MitM (MitM [1]): no conversion products were observed

Compound: C=C1C2=C(C(=O)C(C)=C(OC)C2=O)N2C[C@H]3[C@H](N3C)[C@]12O (stereo partly shown) [MH, mitomycin H]
- conversion of candidate substrate by MitM (MitM [2]): no conversions were detected
- conversion of candidate substrate by MitN (MitN): no conversions were detected

Compound: COC1=C(C)C(=O)C2=C(C1=O)[C@H](COC(N)=O)[C@@]1(O)[C@@H]3[C@H](CN21)N3C (stereo partly shown) [Mitomycin B, mitomycin B]
- Plate count CFU/ml ([3]; Mitomycin B tested at a concentration of 1.0 μg/ml): >10^7b CFU/ml
- conversion of candidate substrate by MitM (MitM [2]): no conversions were detected
- conversion of candidate substrate by MitN (MitN): no conversions were detected
- enzymatic conversion (methylation) by MitM (MitM [1]): no conversion products were observed
- resistance of strain PJS103 to mitomycin B [7]: high-level resistance
- Plate count CFU/ml ([7]; Mitomycin B tested at a concentration of 15 μg/ml): >10^7d CFU/ml

Compound: C[S+](CC[C@H](N)C(=O)O)C[C@H]1O[C@@H](n2cnc3c(N)ncnc32)[C@H](O)[C@@H]1O (stereo partly drawn) [SAM, S-adenosyl-L-methionine]
- Km [8]: 28 µM
- Km [9]: 111 µM
- Km [10]: 23 µM
- Km [11]: 13 µM
- Vmax for SAM (MitM [2]; MitM, pH 7.4, MA fixed 200 μM): 29.8 ± 4.5 nmol/mg/min
- Vmax for SAM (MitN; MitN, pH 7.4, MA fixed 200 μM): 49.4 ± 5.3 nmol/mg/min
- Km [12]: 25 µM

Compound: MitM (Streptomyces lavendulae)
- Km ([13]; other: MitM, 400 μM mitomycin A, pH 7.0): 30 µM
- Km ([13]; other: MitM, pH 7.4, MA fixed 200 μM, SAM 40-400 μM, pH 7.4): 22.8 µM and 23 µM

Compound: MitN (Streptomyces lavendulae)
- Km ([13]; other: MitN, pH 7.4, MA fixed 200 μM, SAM 40-400 μM, pH 7.4): 86.6 µM and 87 µM

Compound: mitomycin G
- enzymatic conversion (methylation) by MitM (MitM [1]): no conversion products were observed

Source: US20030134398A1, “Mitomycin biosynthetic gene cluster” (priority 2001, published 2003)
